Columns and labels:
Conditions in all cases: 72 h
[1] = system: Caco-2; test: cell viability relative to DMSO; higher = less toxic
[2] = system: Calu-3; test: as above
[3] = system: HepG2; test: as above
[4] = system: U2OS; test: as above
[5] = system: Vero E6; test: as above
[6] = system: Caco-2; test: relative viability EC50 (midpoint between 100% and the lowest measured viability); higher = less toxic
[7] = system: Calu-3; test: as above
[8] = system: HepG2; test: as above
[9] = system: U2OS; test: as above
[10] = system: Vero E6; test: as above
[11] = system: Caco-2; test: drug sensitivity score (DSS) for viability; higher = more toxic; extreme values may be limits of the assay
[12] = system: Calu-3; test: as above
[13] = system: HepG2; test: as above
[14] = system: U2OS; test: as above
[15] = system: Vero E6; test: as above

| SMILES | cell viability ([1]; 1 nM) | cell viability ([1]; 10 nM) | cell viability ([1]; 100 nM) | cell viability ([1]; 1000 nM) | cell viability ([1]; 10000 nM) | cell viability ([2]; 1 nM) | cell viability ([2]; 10 nM) | cell viability ([2]; 100 nM) | cell viability ([2]; 1000 nM) | cell viability ([2]; 10000 nM) | cell viability ([3]; 1 nM) | cell viability ([3]; 10 nM) | cell viability ([3]; 100 nM) | cell viability ([3]; 1000 nM) | cell viability ([3]; 10000 nM) | cell viability ([4]; 1 nM) | cell viability ([4]; 10 nM) | cell viability ([4]; 100 nM) | cell viability ([4]; 1000 nM) | cell viability ([4]; 10000 nM) | cell viability ([5]; 1 nM) | cell viability ([5]; 10 nM) | cell viability ([5]; 100 nM) | cell viability ([5]; 1000 nM) | cell viability ([5]; 10000 nM) | relative viability EC50 [6] | relative viability EC50 [7] | relative viability EC50 [8] | relative viability EC50 [9] | relative viability EC50 [10] | drug sensitivity score [11] | drug sensitivity score [12] | drug sensitivity score [13] | drug sensitivity score [14] | drug sensitivity score [15] |
| --- | --- | --- | --- | --- | --- | --- | --- | --- | --- | --- | --- | --- | --- | --- | --- | --- | --- | --- | --- | --- | --- | --- | --- | --- | --- | --- | --- | --- | --- | --- | --- | --- | --- | --- | --- |
| Cc1cc(N2CCCCC2)nc2ccccc12 [ML204] | 87.9% | 97.4% | 84.3% | 96.2% | 87.9% | 113% | 95.5% | 101% | 107% | 110% | 92% | 93.5% | 88.8% | 104% | 102% | 99.7% | 98.4% | 96.9% | 102% | 101% | 91.7% | 92.7% | 87.3% | 92.2% | 103% | > 10 µM | > 10 µM | > 10 µM | > 10 µM | > 10 µM | 0 | 0 | 0 | 0 | 0 |
| Cc1cc(NC(=O)Nc2ccc(F)c(F)c2)n(-c2ccccc2)n1 [ML297] | 96.9% | 97% | 95.9% | 108% | 99.2% | 103% | 98.5% | 105% | 97.4% | 98.7% | 105% | 90.5% | 108% | 91.6% | 98.1% | 97.1% | 101% | 101% | 103% | 98.2% | 104% | 99.5% | 98.2% | 102% | 99.5% | > 10 µM | > 10 µM | > 10 µM | > 10 µM | > 10 µM | 0 | 0 | 0 | 0 | 0 |
| O=C(Nc1ccc(O)cc1)c1ccccc1O [N-salicoylaminophenol] | 94.3% | 96% | 97.4% | 94.7% | 92.7% | 105% | 99.1% | 95.2% | 94.1% | 94.7% | 90.2% | 106% | 92.1% | 105% | 113% | 96.6% | 98.1% | 95.6% | 97.4% | 93.3% | 93.2% | 99.4% | 90.9% | 93.1% | 110% | > 10 µM | > 10 µM | > 10 µM | > 10 µM | > 10 µM | 0 | 0 | 0 | 0 | 0 |
| O=C(NCc1ccccn1)Nc1nnc(-c2ccco2)o1 [NK-252] | 103% | 94.6% | 103% | 91.5% | 80.7% | 104% | 99.9% | 94.2% | 103% | 107% | 104% | 97.4% | 90.4% | 77.2% | 30.6% | 103% | 101% | 105% | 99.3% | 103% | 94.5% | 104% | 104% | 103% | 101% | > 10 µM | > 10 µM | 1.47 µM | > 10 µM | > 10 µM | 1.4 | 0 | 6.5 | 0 | 0 |
| C[C@@]1(O)[C@H](O)[C@@H](CO)O[C@H]1n1ccc(N)nc1=O [NM107] | 93% | 97.3% | 95.9% | 91.2% | 103% | 99.1% | 104% | 95% | 93.9% | 84.6% | 99% | 107% | 106% | 111% | 110% | 98.3% | 93.4% | 100% | 94.8% | 101% | 96% | 100% | 88.7% | 99.4% | 113% | > 10 µM | > 10 µM | > 10 µM | > 10 µM | > 10 µM | 0 | 0.3 | 0 | 0 | 0 |
| Cc1cc(OCc2nnc(SC3CCCC3)n2-c2cccnc2)ccc1-c1ccc(S(C)(=O)=O)cc1 [NMS-873] | 102% | 101% | 83.6% | 77.7% | 17.8% | 88.8% | 93.1% | 92.1% | 85.3% | 16.2% | 107% | 96.2% | 61.6% | 19.7% | 1.5% | 97% | 98.5% | 91.1% | 84.6% | 0.2% | 105% | 102% | 107% | 88% | 0.3% | 1.64 µM | 1.85 µM | 0.175 µM | 1.96 µM | 2.19 µM | 7.3 | 7.1 | 19.7 | 8.1 | 7.5 |
| c1ccc2c(c1)CCC[C@H]2Nc1nc2ccccc2[nH]1 [NS-8593] | 93.1% | 92.9% | 92.4% | 97.2% | 92.2% | 96.2% | 96.2% | 94% | 94.3% | 90.1% | 96.8% | 96.8% | 106% | 99.2% | 78.5% | 104% | 98.1% | 96.2% | 100% | 90.1% | 94% | 95.1% | 95.6% | 98.4% | 87.4% | > 10 µM | > 10 µM | > 10 µM | > 10 µM | > 10 µM | 0 | 0 | 0.8 | 0 | 0 |
